Patent publication US11077115B2, “Rorgamma modulators and uses thereof” (Genfit, priority 2017, dated 2021)

Experiments:
human RORγt [1] = biological target: T1, human RORγt (Homo sapiens, UniProt P51449); assay: RORE Luciferase/RORγt transactivation assay (IL-17 promoter luciferase reporter in COS-7 cells); assay type: cell-based; design: V5-His (named only through the vector pcDNA3.1D/V5-His-TOPO); expressed in transfected cells; host or cells: COS-7 (monkey kidney); conditions: RORγt activity inhibition, luciferase activity in transfected COS-7 cells, 20 h
T1 sequence (P51449 1-497 isoform P51449-2): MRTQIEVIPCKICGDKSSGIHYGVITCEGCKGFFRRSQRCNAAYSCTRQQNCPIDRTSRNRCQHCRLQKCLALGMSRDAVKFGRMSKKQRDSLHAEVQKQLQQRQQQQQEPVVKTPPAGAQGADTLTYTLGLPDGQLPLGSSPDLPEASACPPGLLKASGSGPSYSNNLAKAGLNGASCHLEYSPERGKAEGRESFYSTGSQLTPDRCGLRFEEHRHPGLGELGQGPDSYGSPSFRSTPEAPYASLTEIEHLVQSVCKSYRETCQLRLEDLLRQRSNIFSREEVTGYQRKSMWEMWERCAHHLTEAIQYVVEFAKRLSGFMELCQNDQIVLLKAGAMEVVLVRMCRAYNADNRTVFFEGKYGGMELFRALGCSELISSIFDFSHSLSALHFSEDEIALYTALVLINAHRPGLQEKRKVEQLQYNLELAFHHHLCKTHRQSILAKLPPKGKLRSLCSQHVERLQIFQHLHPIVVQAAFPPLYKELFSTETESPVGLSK
In short: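 COS-7 cells co-transfected with human RORγt and luciferase reporter driven by 4.3 kb IL-17 promoter with CNS enhancer, seeded in serum-free, phenol red-free DMEM. Compounds added at 0.3% DMSO final; luciferase read by Steady-Glo luminescence. IC50 (μM) and Emax (%) reported.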

[2] = biological target: T2, RORγt ligand-binding domain (RORγt-LBD) (Homo sapiens, UniProt P51449); assay: Time-resolved FRET (TR-FRET) RORγt coactivator assay (RIP140 peptide displacement); assay type: biochemical; conditions: ligand-dependent coactivator-RORγt binding
T2 construct: 20 nM recombinantly expressed RORγ-LBD fused to GST
T2 sequence (P51449 269-508 limits assumed): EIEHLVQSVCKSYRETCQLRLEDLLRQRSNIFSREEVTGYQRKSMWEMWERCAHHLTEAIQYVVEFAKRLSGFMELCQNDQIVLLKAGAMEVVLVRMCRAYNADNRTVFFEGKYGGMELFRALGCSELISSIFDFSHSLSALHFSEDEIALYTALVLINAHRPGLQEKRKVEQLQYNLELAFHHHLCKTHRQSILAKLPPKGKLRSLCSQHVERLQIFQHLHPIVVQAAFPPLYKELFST
In short: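 GST-tagged RORγt-LBD (20 nM) with 30 nM biotinylated RIP140 peptide, 1 nM streptavidin-terbium and 20 nM d2-anti-GST in CHAPS buffer with DTT, EDTA, BSA; 1% DMSO. Compounds 0.3 nM–30 μM, 2 h dark, room temperature. Coactivator displacement lowers TR-FRET signal; IC50 (μM) and Emax (%) derived.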

human RORγt [3] = biological target: T1, human RORγt; assay: IL-17 secretion from EL4 murine lymphoma overexpressing human RORγt; assay type: cell-based; design: V5-His (named only through the vector pcDNA3.1D/V5-His-TOPO); expressed in transfected cells; conditions: IL-17 secretion inhibition in human RORγt-transfected EL4 Tcells, PMA/ionomycin stimulation
Experimental: Murine EL-4 lymphoma cell line overexpressing human RORγt was used in this functional assay to assess compound ability to inhibit IL-17 cytokine secretion.
EL-4 cells are maintained in a standard culture medium RPMI supplemented with 10% fetal calf serum, 1% sodium pyruvate, 1% essential amino acids and 1% antibiotics at 37° C. in a humidified atmosphere of 5% CO2 and 95% air. Culture medium was changed every 2 days. EL4 cells were transfected with a plasmid encoding hRORγt (sequence identical to published sequence NM 001001523). […] Briefly, 1 μg of DNA/1 million cells was served to transfect EL-4 cells. Cell/DNA suspension was transferred into certified cuvette and the electroporation of RORγt plasmid was carried out using appropriate Nucleofector® program.
Cells were seeded in 96 well plates at a density of 150000 cells/well then treated with compounds of this invention at indicated concentrations and incubated for 24 hours at 37° C. in a humidified atmosphere of 5% CO2 and 95% air. EL-4 cells were pretreated with test compounds (RORγ modulators) and stimulated with PMA (10 ng/mL) and ionomycin (1 μM final concentration) in the presence of test compound concentrations for additional 24 h at 37° C. in a humidified atmosphere of 5% CO2 and 95% air. Subsequently, supernatants were collected (after centrifugation at 300 g for 10 minutes) to determine the concentrations of IL-17 by HTRF (CisBio, France) or ELISA (R&D Systems Europe) according to the manufacturer's protocols.

With `Cc1ccc(C(NC(=O)Cc2cnc(N3CCS(=O)(=O)CC3)nc2)c2ccc(C)o2)c(N2CCCCC2)c1` (stereo not drawn) [Cpd. 20, 2-[2-(1,1-dioxo-1-thiomorpholin-4-yl)pyrimidin-5-yl]-N-{[4-methyl-2-(piperidin-1-yl)phenyl](5-methylfuran-2-yl)methyl}acetamide] the IC50 (human RORγt [1]) was under 100 nM, the IC50 [2] was under 1000 nM and the IC50 (human RORγt [3]) was under 1000 nM.

`Cc1ccc(C(NC(=O)Cc2ccc(N3CCS(=O)(=O)CC3)cc2C)c2ccc(C)o2)c(Br)c1` (stereo not drawn) [Cpd. 21, N-[(2-bromo-4-methylphenyl)(5-methylfuran-2-yl)methyl]-2-[4-(1,1-dioxo-1-thiomorpholin-4-yl)-2-methylphenyl]acetamide] was tested, and the IC50 (human RORγt [1]) was under 100 nM, the IC50 [2] was under 1000 nM and the IC50 (human RORγt [3]) was 100 to 1000 nM.

`Cc1ccc(C(NC(=O)Cc2ccc(N3CCS(=O)(=O)CC3)cc2)c2ccccc2)c(N2CC3CC3C2)c1` (stereo not drawn) [Cpd. 22, N-[(2-{3-azabicyclo[3.1.0]hexan-3-yl}-4-methylphenyl)(phenyl)methyl]-2-[4-(1,1-dioxo-1-thiomorpholin-4-yl)phenyl]acetamide] was tested, and the IC50 (human RORγt [1]) was under 100 nM, the IC50 [2] was under 1000 nM and the IC50 (human RORγt [3]) was 100 to 1000 nM.

Compound `Cc1ccc(C(NC(=O)Cc2ccc(N3CCS(=O)(=O)CC3)c(C)c2)c2ccccc2)c(N2CC3CC3C2)c1` (stereo not drawn) [Cpd. 23, N-[(2-{3-azabicyclo[3.1.0]hexan-3-yl}-4-methylphenyl)(phenyl)methyl]-2-[4-(1,1-dioxo-1-thiomorpholin-4-yl)-3-methylphenyl]acetamide] has an IC50 (human RORγt [1]) of under 100 nM, an IC50 [2] of 100 to 1000 nM and an IC50 (human RORγt [3]) of 100 to 1000 nM.

`Cc1ccc(C(NC(=O)Cc2ccc(N3CCOCC3)nc2)c2ccc(C)o2)c(N2CCCCC2)c1` (stereo not drawn) [Cpd. 25, N-{[4-methyl-2-(piperidin-1-yl)phenyl](5-methylfuran-2-yl)methyl}-2-[6-(morpholin-4-yl)pyridin-3-yl]acetamide] showed an IC50 (human RORγt [1]) of 100 to 1000 nM, an IC50 [2] of under 1000 nM and an IC50 (human RORγt [3]) of 100 to 1000 nM.

`Cc1ccc(C(NC(=O)Cc2ccc(N3CCS(=O)(=O)CC3)nc2)c2ccc(C)o2)c(N2CCCCC2)c1` (stereo not drawn) [Cpd. 27, 2-[6-(1,1-dioxo-1-thiomorpholin-4-yl)pyridin-3-yl]-N-{[4-methyl-2-(piperidin-1-yl)phenyl](5-methylfuran-2-yl)methyl}acetamide] was tested, and the IC50 (human RORγt [1]) was under 100 nM, the IC50 [2] was under 1000 nM and the IC50 (human RORγt [3]) was under 1000 nM.

`Cc1ccc(C(NC(=O)Cc2cc(N3CCS(=O)(=O)CC3)ccc2C)c2ccc(C)o2)c(N2CC3CC3C2)c1` (stereo not drawn) [Cpd. 28, N-[(2-{3-azabicyclo[3.1.0]hexan-3-yl}-4-methylphenyl)(5-methylfuran-2-yl)methyl]-2-[5-(1,1-dioxo-1-thiomorpholin-4-yl)-2-methylphenyl]acetamide] was tested, and the IC50 (human RORγt [1]) was 100 to 1000 nM, the IC50 [2] was under 1000 nM and the IC50 (human RORγt [3]) was 100 to 1000 nM.

For `Cc1ccc(C(NC(=O)C2(c3ccc(N4CCS(=O)(=O)CC4)cc3)CC2)c2ccc(C)o2)c(C)c1` (stereo not drawn) [Cpd. 31, N-[(2,4-dimethylphenyl)(5-methylfuran-2-yl)methyl]-1-[4-(1,1-dioxo-1-thiomorpholin-4-yl)phenyl]cyclopropane-1-carboxamide], the IC50 (human RORγt [1]) was under 100 nM, the IC50 [2] was under 1000 nM and the IC50 (human RORγt [3]) was under 1000 nM.

Work on `Cc1ccc(C(NC(=O)C2(c3ccc(N4CCS(=O)(=O)CC4)cc3)CC2)c2ccc(C)o2)c(N2CCCCC2)c1` (stereo not drawn) [Cpd. 32, 1-[4-(1,1-dioxo-1-thiomorpholin-4-yl)phenyl]-N-{[4-methyl-2-(piperidin-1-yl)phenyl](5-methylfuran-2-yl)methyl}cyclopropane-1-carboxamide] yielded an IC50 (human RORγt [1]) of under 100 nM, an IC50 [2] of 100 to 1000 nM and an IC50 (human RORγt [3]) of under 1000 nM.

Work on `Cc1ccc(C(NC(=O)Cc2cnc(N3CCS(=O)(=O)CC3)nc2C)c2ccc(C)o2)c(N2CCCCC2)c1` (stereo not drawn) [Cpd. 38, 2-[2-(1,1-dioxo-1-thiomorpholin-4-yl)-4-methylpyrimidin-5-yl]-N-{[4-methyl-2-(piperidin-1-yl)phenyl](5-methylfuran-2-yl)methyl}acetamide] yielded an IC50 (human RORγt [1]) of under 100 nM, an IC50 [2] of under 1000 nM and an IC50 (human RORγt [3]) of under 1000 nM.
